{
  "source": "paper PMC8966664",
  "about": "(Frontiers in Pharmacology, 2022)",
  "key": {"CYP2B2": {"molecular_target": "T1, CYP2B2 (Rattus norvegicus, UniProt P04167)", "T1 construct": "and 1 mg/ml rat liver microsomes; from tissue; host or cells: rat liver microsomes", "T1 sequence (P04167 1-491)": "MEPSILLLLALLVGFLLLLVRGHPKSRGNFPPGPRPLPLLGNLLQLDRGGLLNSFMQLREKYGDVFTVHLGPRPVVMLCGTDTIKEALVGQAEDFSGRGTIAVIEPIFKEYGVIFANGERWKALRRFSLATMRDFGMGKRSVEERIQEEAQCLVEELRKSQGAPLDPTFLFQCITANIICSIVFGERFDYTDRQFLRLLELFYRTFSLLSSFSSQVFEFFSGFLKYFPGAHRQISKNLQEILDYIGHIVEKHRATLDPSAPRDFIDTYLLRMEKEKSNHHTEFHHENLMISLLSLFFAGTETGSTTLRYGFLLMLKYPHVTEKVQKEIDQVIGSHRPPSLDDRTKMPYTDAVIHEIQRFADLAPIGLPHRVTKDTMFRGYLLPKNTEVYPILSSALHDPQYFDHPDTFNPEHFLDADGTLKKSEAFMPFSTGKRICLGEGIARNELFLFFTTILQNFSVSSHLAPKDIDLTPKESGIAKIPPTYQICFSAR", "parameters": "method as in Otten et al., 2011", "conditions": "CYP enzyme 2B2; cocktail probe substrate parameter, source not stated; ref Otten et al., 2011; cited from earlier work"}, "CYP2A2": {"molecular_target": "T2, CYP2A2 (Rattus norvegicus, UniProt P15149)", "T2 construct": "and 1 mg/ml rat liver microsomes; from tissue; host or cells: rat liver microsomes", "T2 sequence (P15149 whole entry)": "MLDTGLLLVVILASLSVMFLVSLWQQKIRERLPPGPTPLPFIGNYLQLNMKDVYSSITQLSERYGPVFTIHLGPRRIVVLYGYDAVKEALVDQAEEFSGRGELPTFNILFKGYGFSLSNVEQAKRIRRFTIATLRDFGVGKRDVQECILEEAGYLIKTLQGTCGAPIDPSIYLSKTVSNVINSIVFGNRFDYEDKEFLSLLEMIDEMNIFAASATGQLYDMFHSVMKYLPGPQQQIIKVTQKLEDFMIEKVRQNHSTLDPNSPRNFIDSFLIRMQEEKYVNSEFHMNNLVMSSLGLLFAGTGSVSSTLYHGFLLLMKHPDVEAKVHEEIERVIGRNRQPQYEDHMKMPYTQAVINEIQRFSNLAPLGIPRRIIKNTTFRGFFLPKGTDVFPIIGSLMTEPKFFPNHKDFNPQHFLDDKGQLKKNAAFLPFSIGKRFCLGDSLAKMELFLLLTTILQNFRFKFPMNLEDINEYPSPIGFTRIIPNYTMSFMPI", "parameters": "method as in Otten et al., 2011", "conditions": "CYP enzyme 2A2; cocktail probe substrate parameter, source not stated; ref Otten et al., 2011; cited from earlier work"}, "CYP2D1": {"molecular_target": "T3, CYP2D1 (Rattus norvegicus, UniProt P10633)", "T3 construct": "and 1 mg/ml rat liver microsomes; from tissue; host or cells: rat liver microsomes", "T3 sequence (P10633 1-504)": "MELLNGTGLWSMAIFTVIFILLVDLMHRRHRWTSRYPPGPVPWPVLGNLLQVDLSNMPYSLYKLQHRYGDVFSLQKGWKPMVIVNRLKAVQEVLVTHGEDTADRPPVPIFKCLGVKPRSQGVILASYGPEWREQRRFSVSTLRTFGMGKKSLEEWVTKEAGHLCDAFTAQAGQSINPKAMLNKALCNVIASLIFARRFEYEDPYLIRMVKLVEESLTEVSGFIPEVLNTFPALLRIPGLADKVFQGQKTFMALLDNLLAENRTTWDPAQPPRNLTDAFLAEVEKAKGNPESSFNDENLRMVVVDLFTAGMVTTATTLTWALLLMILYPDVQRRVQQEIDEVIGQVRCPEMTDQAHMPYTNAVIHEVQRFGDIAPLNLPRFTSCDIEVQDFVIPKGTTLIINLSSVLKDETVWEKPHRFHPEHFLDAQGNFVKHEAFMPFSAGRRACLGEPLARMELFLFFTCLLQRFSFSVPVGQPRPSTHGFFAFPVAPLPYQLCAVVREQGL", "parameters": "method as in Otten et al., 2011", "conditions": "CYP enzyme 2D1; cocktail probe substrate parameter, source not stated; ref Otten et al., 2011; cited from earlier work"}, "[1]": {"system": "bacterial ß-D-glucuronidase", "parameters": "method as in Takeda et al., 1996", "conditions": "gastrointestinal tract, after oral administration; ref Takeda et al., 1996; cited from earlier work"}, "rat liver microsomes": {"system": "rat liver microsomes", "assay": "Formation of 7,9-diGS-DHP from RTS in rat liver microsomes", "type": "biochemical", "conditions": "KCZ 25 µM; 1 mg/ml rat liver microsomes, 200 µM RTS", "method": "The injection volume was 3 μL. […] The injection volume was 5 µL."}, "CYP1A2": {"system": "CYP1A2", "conditions": "CYP enzyme 1A2; cocktail probe substrate parameter, source not stated; ref Otten et al., 2011; cited from earlier work"}, "CYP2C11": {"molecular_target": "T4, CYP2C11 (Rattus norvegicus, UniProt P08683)", "T4 construct": "and 1 mg/ml rat liver microsomes; from tissue; host or cells: rat liver microsomes", "T4 sequence (P08683 1-500)": "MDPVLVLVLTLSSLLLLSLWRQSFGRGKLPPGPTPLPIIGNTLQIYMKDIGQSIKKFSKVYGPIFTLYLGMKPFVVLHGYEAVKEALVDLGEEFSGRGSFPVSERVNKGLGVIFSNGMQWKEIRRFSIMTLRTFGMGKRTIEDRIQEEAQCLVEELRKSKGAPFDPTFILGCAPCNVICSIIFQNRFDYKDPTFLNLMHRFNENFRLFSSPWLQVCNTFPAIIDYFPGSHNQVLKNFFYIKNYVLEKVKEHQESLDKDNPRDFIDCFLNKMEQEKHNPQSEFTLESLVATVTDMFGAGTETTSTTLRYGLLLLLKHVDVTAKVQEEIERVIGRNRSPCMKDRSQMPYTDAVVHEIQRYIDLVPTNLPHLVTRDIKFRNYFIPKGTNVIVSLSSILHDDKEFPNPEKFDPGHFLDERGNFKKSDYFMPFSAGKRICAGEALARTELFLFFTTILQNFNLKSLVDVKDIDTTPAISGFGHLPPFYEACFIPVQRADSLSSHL", "parameters": "method as in Otten et al., 2011", "conditions": "CYP enzyme 2C11; cocktail probe substrate parameter, source not stated; ref Otten et al., 2011; cited from earlier work"}},
  "data": [
    {"smiles": "CC(NC(C)(C)C)C(=O)c1cccc(Cl)c1", "note": "(stereo not shown) [Bupropion]", "values": [
      {"measurement": "Km", "setting": "CYP2B2", "result": "67 to 168", "unit": "µM"}
    ]},
    {"smiles": "O=c1ccc2ccccc2o1", "note": "[Coumarin]", "values": [
      {"measurement": "Km", "setting": "CYP2A2", "result": "0.3 to 2.3", "unit": "µM"}
    ]},
    {"smiles": "COc1ccc2c(c1)[C@]13CCCC[C@@H]1[C@H](C2)N(C)CC3", "note": "[Dextromethorphan]", "values": [
      {"measurement": "Km", "setting": "CYP2D1", "result": "0.4 to 8.5", "unit": "µM"}
    ]},
    {"smiles": "CC1(C)[C@@H](O[C@H]2O[C@H](C(=O)O)[C@@H](O)[C@H](O)[C@H]2O[C@@H]2O[C@H](C(=O)O)[C@@H](O)[C@H](O)[C@H]2O)CC[C@]2(C)[C@H]3C(=O)C=C4[C@@H]5C[C@@](C)(C(=O)O)CC[C@]5(C)CC[C@@]4(C)[C@]3(C)CC[C@@H]12", "note": "[GL, Glycyrrhizin]", "values": [
      {"measurement": "fraction of GL irreversibly transformed into 18β-GA", "setting": "[1]", "result": "~100", "unit": "%"}
    ]},
    {"smiles": "CC(=O)N1CCN(c2ccc(OCC3COC(Cn4ccnc4)(c4ccc(Cl)cc4Cl)O3)cc2)CC1", "note": "(stereo not shown) [KCZ, ketoconazole]", "values": [
      {"measurement": "reduction of the formation of 7,9-diGS-DHP", "setting": "rat liver microsomes", "result": 62, "unit": "%"}
    ]},
    {"smiles": "CCOc1ccc(NC(C)=O)cc1", "note": "[Phenacetin]", "values": [
      {"measurement": "Km", "setting": "CYP1A2", "result": "1.7 to 152", "unit": "µM"}
    ]},
    {"smiles": "CC[C@@]1(c2ccccc2)NC(=O)N(C)C1=O", "note": "[S-Mephenytoin]", "values": [
      {"measurement": "Km", "setting": "CYP2C11", "result": "13 to 35", "unit": "µM"}
    ]}
  ]
}
